Measurements from patent US11590116B2 (THERAVANCE BIOPHARMA R&D IP, LLC, priority 2019, dated 2023).

Assays:
[1] = molecular target: T1, recombinant human ALK5 (TGF-βR1) protein (Homo sapiens, UniProt P36897); experiment: Biochemical ALK5 (TGF-βR1) assay to measure pKi (LANCE Ultra ULight kinase assay); details: apparent pKi from pIC50 by Cheng-Prusoff, read-out: ALK5 pKi (converted)
T1 construct: purchased Life Technologies PR9075A
T1 sequence (P36897 34-503): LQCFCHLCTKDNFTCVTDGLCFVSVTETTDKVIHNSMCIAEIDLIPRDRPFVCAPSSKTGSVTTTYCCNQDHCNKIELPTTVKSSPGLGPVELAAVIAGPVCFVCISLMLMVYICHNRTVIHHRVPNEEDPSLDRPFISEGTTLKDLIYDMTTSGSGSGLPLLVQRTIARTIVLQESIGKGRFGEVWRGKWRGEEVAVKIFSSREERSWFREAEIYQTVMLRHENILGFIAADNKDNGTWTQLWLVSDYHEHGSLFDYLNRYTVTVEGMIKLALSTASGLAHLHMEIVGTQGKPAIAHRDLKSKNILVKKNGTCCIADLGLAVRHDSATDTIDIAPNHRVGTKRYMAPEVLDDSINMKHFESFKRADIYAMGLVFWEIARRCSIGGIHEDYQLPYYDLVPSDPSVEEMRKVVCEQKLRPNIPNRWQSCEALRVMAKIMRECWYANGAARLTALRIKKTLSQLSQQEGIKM
Description: The assays were performed in a 384-well plate (24 columns×16 wells/rows). An Echo® 550 Liquid Handler (Labcyte) was used to prepare various intermediate concentrations of compounds of the present disclosure in 100% DMSO. From the intermediate concentrations, a range of concentrations (from 10 μM to 25 pM corresponding to volumes up to 105 nL) were prepared and ejected into a final assay plate to be used to create individual dose response curves for each of the subject compounds. To a separate column within the assay plate, 105 nL of DMSO in each well was used to establish a maximum assay signal.
With a multidrop dispenser, 8 μL of enzyme mixture (1.25× final) was added to each well. […] The plate was then sealed with an adhesive seal and allowed to equilibrate for 60 minutes at room temperature.
Next, 2 μL of 125 μM ATP (5× final, 125 μM ATP prepared in assay buffer with 2 mM DTT) was added to the incubated mixtures, covered with a MicroClime® Environmental Lid (Product No. LLS-0310, Labcyte) and immediately transferred to 37° C. The reactions were allowed to proceed at 37° C. for 60 minutes before terminating with the addition of 10 μL of detection antibody (LANCE® (lanthanide chelate excite) Ultra Europium-anti-phospo-DNA Topoisomerase 2-alpha (Thr1342)) in detection mixture (12 mM EDTA, 4 nM detection antibody prepared in detection buffer (50 mM Tris-HCl, 150 mM NaCl, 0.5% BSA (Fraction V), pH 7.0)) at room temperature. The plate was then read on a Perkin Elmer EnVision Plate Reader using europium specific reader settings with excitation and emission wavelengths set to 320 or 340 nm and 665 nm, respectively.
For dose-response analyses, percent inhibition versus compound concentrations were plotted, and pIC50 values were determined from a 4-parameter robust fit model with GraphPad Prism V5 Software (GraphPad Software, Inc., La Jolla, Calif.). This model obtains pIC50 values by fitting the sigmoidal dose-response (variable slope) equation to the data. Results were expressed as pIC50 (negative logarithm of IC50) and subsequently converted to pKi (negative logarithm of dissociate constant, K) using the Cheng-Prusoff equation. The higher the value of pKi (lower value of Ki), the greater the inhibition of ALK5 activity.

[2] = tested on: TGF-β-stimulated SMAD3 phosphorylation in BEAS-2B cells; experiment: Cellular ALK5 potency assay, inhibition of TGF-β stimulated pSMAD3 formation in BEAS-2B cells; type: cell-based; details: Homo sapiens; inhibition of TGF-β stimulated pSMAD3 formation, BEAS-2B cells; read-out: BEAS2B pIC50 (converted)
Description: The potency of compounds of the present disclosure for inhibition of TGF-β-stimulated SMAD3 phosphorylation was measured in BEAS-2B cells, a human lung epithelial cell line. TGF-β signals through activin receptor-like kinase 5 (ALK5) immediately prior to SMAD3 phosphorylation.
BEAS-2B cells were grown using 50% DMEM (Life Technologies) and 50% F-12 (Life Technologies) media, supplemented with 10% Fetal Bovine Serum (ATCC), 25 mM HEPES (Life Technologies), and 1× Pen-Strep (Life Technologies). Cells were cultured in a humidified incubator set at 37° C., 5% CO2, and trypsonized using 0.25% Trypsin with 0.5% polyvinylpyrrolidone (PVP).
For the assay, BEAS-2B cells were seeded at 7,500 cells/well (25 μL/well) in a 384-well plate and cultured overnight. Before dosing, growth media was aspirated and the wells were rinsed with HBSS Buffer (HBSS with Calcium and Magnesium, Life Technologies) supplemented with 25 mM HEPES (Life Technologies) and 1% Bovine Serum Albumin (Roche). Compounds were serially diluted in DMSO, then further diluted with supplemented HBSS Buffer (50 μL/well) to create a compound plate 3× of the final assay concentration, at 0.3% DMSO. The diluted compounds were then added to the cells (8 μL/well) and incubated at 37° C., 5% CO2 for 1 hour. After the compound incubation, TGF-β (R&D Systems) reconstituted in supplemented HBSS Buffer was added to the cells ([…], final concentration 10 ng/mL) and incubated for a further 30 minutes, after which the cells were immediately lysed with AlphaLISA lysis buffer (PerkinElmer). AlphaLISA Acceptor and Detector beads (PerkinElmer) were added 2 hours apart, then incubated overnight to be read the next day. The potency of the compound was determined through analysis of dose-dependent quantified changes in pSMAD3 signal from baseline (non-compound treated TGF-β stimulated cells). Data are expressed as pIC50 (negative decadic logarithm IC50) values.

| Compound | Ki [1] [nM] | IC50 [2] [nM] |
| --- | --- | --- |
| Cc1cccc(-c2n[nH]cc2-c2ccc3nccc(-c4cn[nH]c4)c3c2)n1 [Compound 866, 6-[3-(6-methyl-2-pyridyl)-1H-pyrazol-4-yl]-4-(1H-pyrazol-4-yl)quinoline] | < 0.0316 | 25.1 to 158 |
| Cc1cccc(-c2n[nH]cc2-c2ccc3ncc(-c4cnn5c4CNCC5)cc3n2)n1 [Compound 308, 2-[3-(6-methyl-2-pyridyl)-1H-pyrazol-4-yl]-7-(4,5,6,7-tetrahydropyrazolo[1,5-a]pyrazin-3-yl)-1,5-naphthyridine] | 0.0398 to 0.316 | < 20 |
| Cc1cccc(-c2[nH]ncc2-c2ccc3nccc(C(=O)OC4CCNCC4)c3c2)n1 [Compound 1210, 4-piperidyl 6-[5-(6-methyl-2-pyridyl)-1H-pyrazol-4-yl]quinoline-4-carboxylate] | 0.0398 to 0.316 | 25.1 to 158 |
| COC(=O)c1ccnc2ccc(-c3c(OC)n[nH]c3-c3cccc(C)n3)nc12 [Compound 864, methyl 6-[3-methoxy-5-(6-methyl-2-pyridyl)-1H-pyrazol-4-yl]-1,5-naphthyridine-4-carboxylate] | 0.398 to 3.16 | 200 to 1260 |
| Cc1cccc(-c2n[nH]cc2-c2ccc3ncc(N4CCC[C@H](N(C)C)C4)cc3n2)n1 [Compound 492, (3S)-N,N-dimethyl-1-[6-[3-(6-methyl-2-pyridyl)-1H-pyrazol-4-yl]-1,5-naphthyridin-3-yl]piperidin-3-amine] | 0.0398 to 0.316 | 25.1 to 158 |
| CNCCn1cc(-c2cnc3ccc(-c4c[nH]nc4-c4cccc(C)n4)cc3c2)cn1 [Compound 589, N-methyl-2-[4-[6-[3-(6-methyl-2-pyridyl)-1H-pyrazol-4-yl]-3-quinolyl]pyrazol-1-yl]ethanamine] | < 0.0316 | < 20 |
| Cc1cccc(-c2n[nH]cc2-c2ccc3ncc(NC4CCNCC4)cc3n2)n1 [Compound 113, 6-[3-(6-methyl-2-pyridyl)-1H-pyrazol-4-yl]-N-(4-piperidyl)-1,5-naphthyridin-3-amine] | 0.0398 to 0.316 | 200 to 1260 |
| Cc1cccc(-c2[nH]ncc2-c2ccc3ncc(C(=O)OCCN4CCCC4)cc3n2)n1 [Compound 361, 2-pyrrolidin-1-ylethyl 6-[5-(6-methyl-2-pyridyl)-1H-pyrazol-4-yl]-1,5-naphthyridine-3-carboxylate] | 0.398 to 3.16 | 25.1 to 158 |
| Cc1cccc(-c2[nH]cnc2-c2ccc3ncc(C(=O)O[C@H]4C[C@@H](N)C4)cc3c2)n1 [Compound 759, (3-aminocyclobutyl) 6-[5-(6-methyl-2-pyridyl)-1H-imidazol-4-yl]quinoline-3-carboxylate] | 0.0398 to 0.316 | 25.1 to 158 |
| Cc1cccc(-c2[nH]cnc2-c2ccc3ncc(N4CCC(NC(=O)C5CCNCC5)CC4)cc3c2)n1 [Compound 583, N-[1-[6-[5-(6-methyl-2-pyridyl)-1H-imidazol-4-yl]-3-quinolyl]-4-piperidyl]piperidine-4-carboxamide] | 0.0398 to 0.316 | 1580 to 10000 |
| Cc1cccc(-c2n[nH]cc2-c2ccc3nccc(C(=O)NCN4CCOCC4)c3n2)n1 [Compound 807, 6-[3-(6-methyl-2-pyridyl)-1H-pyrazol-4-yl]-N-(morpholinomethyl)-1,5-naphthyridine-4-carboxamide] | 0.398 to 3.16 |  |
| Cc1cccc(-c2[nH]cnc2-c2ccc3ncc(-c4csc(C(=O)OC[C@H]5CC[C@H](N)CC5)c4)cc3c2)n1 [Compound 1245, (4-aminocyclohexyl)methyl 4-[6-[5-(6-methyl-2-pyridyl)-1H-imidazol-4-yl]-3-quinolyl]thiophene-2-carboxylate] | 0.0398 to 0.316 |  |
| Cc1cccc(-c2[nH]ncc2-c2ccc3nccc(C(=O)O[C@H]4CC[C@](C)(N)CC4)c3c2)n1 [Compound 1135, (4-amino-4-methyl-cyclohexyl) 6-[5-(6-methyl-2-pyridyl)-1H-pyrazol-4-yl]quinoline-4-carboxylate] | 3.98 to 31.6 |  |
| Cc1nc(-c2n[nH]cc2-c2ccc3ncc(-c4cnn(C5CC(N)C5)c4)cc3n2)ccc1F (stereo not shown) [Compound 647, 3-[4-[6-[3-(5-fluoro-6-methyl-2-pyridyl)-1H-pyrazol-4-yl]-1,5-naphthyridin-3-yl]pyrazol-1-yl]cyclobutanamine] |  | 25.1 to 158 |
| CCOC(=O)[C@H](C)NP(=O)(OCc1cnc2ccc(-c3cn[nH]c3-c3cccc(C)n3)nc2c1)Oc1ccccc1 (stereo partly drawn) [Compound 464, ethyl (2S)-2-[[[6-[5-(6-methyl-2-pyridyl)-1H-pyrazol-4-yl]-1,5-naphthyridin-3-yl]methoxy-phenoxy-phosphoryl]amino]propanoate] | 0.0398 to 0.316 |  |
| Cc1cccc(-c2[nH]cnc2-c2ccc3ncc(-c4ncc(C(=O)OC5CCNCC5)s4)cc3c2)n1 [Compound 1022, piperidin-4-yl 2-(6-(5-(6-methylpyridin-2-yl)-1H-imidazol-4-yl)quinolin-3-yl)thiazole-5-carboxylate] | 0.0398 to 0.316 |  |
| Cc1cccc(-c2n[nH]cc2-c2ccc3nccc(C(=O)NCCCN4CCOCC4)c3n2)n1 [Compound 803, 6-[3-(6-methyl-2-pyridyl)-1H-pyrazol-4-yl]-N-(3-morpholinopropyl)-1,5-naphthyridine-4-carboxamide] | 0.398 to 3.16 |  |
| CNCCn1cc(-c2cnc3ccc(-c4c[nH]nc4-c4ccc(F)c(C)n4)nc3c2C)cn1 [Compound 870, 2-[4-[6-[3-(5-fluoro-6-methyl-2-pyridyl)-1H-pyrazol-4-yl]-4-methyl-1,5-naphthyridin-3-yl]pyrazol-1-yl]-N-methyl-ethanamine] |  | 25.1 to 158 |
| Cc1nc(-c2n[nH]cc2-c2ccc3ncc(-c4cnn(C5CCC(N)CC5)c4)cc3n2)ccc1F (stereo not shown) [Compound 459, 4-[4-[6-[3-(5-fluoro-6-methyl-2-pyridyl)-1H-pyrazol-4-yl]-1,5-naphthyridin-3-yl]pyrazol-1-yl]cyclohexanamine] |  | 25.1 to 158 |
| Cc1cccc(-c2n[nH]cc2-c2ccc3nccc(C(=O)NCCN4CCN(C(C)C)CC4)c3n2)n1 [Compound 808, N-[2-(4-isopropylpiperazin-1-yl)ethyl]-6-[3-(6-methyl-2-pyridyl)-1H-pyrazol-4-yl]-1,5-naphthyridine-4-carboxamide] | 3.98 to 31.6 |  |
| Cc1cccc(-c2[nH]cnc2-c2ccc3ncc(N4CCC(NCCSC(CCO)C(=O)O)C4)cc3c2)n1 (stereo not shown) [Compound 720, 4-hydroxy-2-[2-[[1-[6-[5-(6-methyl-2-pyridyl)-1H-imidazol-4-yl]-3-quinolyl]pyrrolidin-3-yl]amino]ethylsulfanyl]butanoic acid] | 0.0398 to 0.316 |  |
